The target of one data set is T1, human FXR (Homo sapiens, UniProt Q96RI1).
T1 construct: expressed in transfected cells; host or cells: COS-7
T1 sequence (Q96RI1 1-472 isoform Q96RI1-2): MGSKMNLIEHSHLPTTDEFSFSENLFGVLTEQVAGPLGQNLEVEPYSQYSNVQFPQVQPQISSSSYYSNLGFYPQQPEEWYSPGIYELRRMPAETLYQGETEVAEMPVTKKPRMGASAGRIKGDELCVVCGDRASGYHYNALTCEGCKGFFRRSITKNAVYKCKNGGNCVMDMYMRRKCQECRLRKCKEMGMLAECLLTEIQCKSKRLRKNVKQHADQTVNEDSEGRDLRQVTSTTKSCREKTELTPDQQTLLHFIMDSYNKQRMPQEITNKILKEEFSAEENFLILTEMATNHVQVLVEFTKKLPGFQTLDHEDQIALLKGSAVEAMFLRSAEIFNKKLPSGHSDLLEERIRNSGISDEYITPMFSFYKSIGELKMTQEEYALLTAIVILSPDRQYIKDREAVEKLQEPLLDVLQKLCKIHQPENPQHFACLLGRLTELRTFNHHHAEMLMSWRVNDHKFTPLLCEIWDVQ
Description: Reporter gene analysis, COS-7 cells cotransfected with full-length FXR and EcRE-Luc. The data set is classed as cell-based. The following applies: 0.5 μM, COS-7, EcRE reporter, FIG. 2. As to the method:
(§1) DMEM medium containing 10% fetal bovine serum is used to perform the culture of monkey kidney epithelial cell COS-7 cells, and COS-7 cells are inoculated onto a 24-well plate on the day before transfection with an inoculation density of 5×10^4 cells/well, and transfected on the next day. The transfection is the transient transfection performed using Lipofectamine 2000 (Invitrogen). In the reporter gene analysis experiment, 200 ng of a nuclear receptor full-length expression plasmid or the expression plasmid of the mutant thereof, 200 ng of endogenous promoter reporter gene, and 30 ng of Renilla luciferase expression plasmid are used for cotransfection. 500 μl Opti-MEM is added to each well and cultured for 5 h, followed by adding a ligand medicament diluted in Opti-MEM to reach the corresponding concentration, and treating for 18 h. Various nuclear receptors and the corresponding reporter gene used are as follows: human FXR, EcRE-Luc; human PPARs (α, β, and γ), PPRE-Luc; human RORs (α, β and γ), Pcp2/RORE-Luc; human GR and PR, MMTV-Luc; human RARα and RARβ, and βRE-Luc.
(§2) A ligand can be tested for the affinity to FXR since the ligand can induce FXR to recruit coregulators after binding to FXR.
In general terms: Reporter assays use an easily measured gene product as a stand-in for the process of interest.

In data set [1] the test system is other detected nuclear receptors. In words: Reporter gene analysis, COS-7 cells cotransfected with other nuclear receptors (PPARs, RORs, GR, PR, RARα, RARβ, PXR, CAR). The following applies: 0.5 μM, COS-7, FIG. 2. On the procedure:
as §1, §2

In another data set the target is T2, FXR A291W (Homo sapiens, UniProt Q96RI1, A305W).
T2 construct: the expression plasmid expressing full-length FXR (wt) or with mutations at the corresponding sites; expressed in transfected cells; host or cells: COS-7
T2 sequence (Q96RI1 1-472 isoform Q96RI1-2 A291W): T1 sequence (Q96RI1 1-472 isoform Q96RI1-2) with A291W
In words: Reporter gene analysis with FXR point mutant A291W in COS-7 cells. In kind it is cell-based. The following applies: COS-7, EcRE reporter, FIG. 5. On the procedure: (§3) (2) The expression vector of FXR with point mutations at key binding sites is obtained. Quick-Change site-directed mutagenesis kit (Stratagene) is used for mutation, and the mutation reaction system is as follows: wild-type plasmid pCMX-FXR (50 ng) of 0.5 μl, mutation primer (100 μM) of 0.2 μl, pfu DNA polymerase (Invitrogen) (2 U) of 1 μl, 10 mM dNTPs of 1 μl, 10× PCR buffer of 5 μl, and ddH2O of 43 μl. PCR procedures are performed as follows: 94° C. for 2 min; 94° C. for 30 s, 55° C. for 1 min, 72° C. for 7 min, 15 cycles. 20 μl PCR product is digested with Dpn I […], followed by taking and transforming 2 μl digestion product into E. coli Trans 109 competent cells, ice bath for 30 min, and heat shock at 42° C. for 30 s. 250 μl of LB liquid medium without antibiotics is added, and preshaken at 225 rpm at 37° C. for 40 min, followed by taking 150 μl of products, spreading same on LB solid medium plates with ampicillin at 100 μg/ml and culturing them at 37° C. overnight. On the next day, the single colony is picked out and placed in 2 ml LB liquid medium containing ampicillin at 100 μg/ml, and cultured at 37° C. overnight. Plasmid extraction is performed on the shaken bacterial solution using Qiagen MiniPrep Plasmid Minipreparation Kit. The plasmid is identified by sequencing.

A further data set deals with T3, FXR F284H (Homo sapiens, UniProt Q96RI1, F298H).
T3 construct: the expression plasmid expressing full-length FXR (wt) or with mutations at the corresponding sites; expressed in transfected cells; host or cells: COS-7
In words: Reporter gene analysis with FXR point mutant F284H in COS-7 cells. The data set is classed as cell-based. The following applies: COS-7, EcRE reporter, FIG. 5. On the procedure: as §3

The test system of data set [2] is FXR targeting genes and genes associated with the saccharide, triglyceride and cholesterol metabolism. In words: Fluorescence quantitative PCR of liver gene expression in treated wild-type mice. In kind it is in vivo. To be noted: wild-type mouse liver, real-time PCR, FIG. 13. As to the method:
Total RNA is extracted from the tissues using an RNA extraction kit (Omega Bio-Tek, GA). TAKARA reverse transcription kit is used for the reverse transcription, and fluorescence quantitative PCR is performed with CFX™ 96 (BIO-RAD) real-time monitoring system using SYBR green fluorescent dye so as to analyze the gene expression level. The expression level of Actin gene is used as the internal reference for the results. The reaction system comprises SYBR Premix Ex Taq (2×) of 12.5 μl, PCR forward primer (10 μM) of 1 μl, PCR reverse primer (10 μM) of 1 μl, cDNA template of 2 μl, and sterilized distilled water of 8.5 μl, 25 μl in total. The two-step amplification PCR procedures are as follows: pre-denaturation at 95° C. for 30 s, PCR reaction at 95° C. for 5 s, and 60° C. for 40 s. 40 cycles.
The expression of genes associated with saccharides, lipids, and cholesterol metabolism in mouse liver treated with ligand medicaments is detected by fluorescent quantitative real-time PCR.

Data set [3] relates to wild-type mouse liver cells. Description: LPS induced inflammatory gene expression in wild-type mouse liver cells. In kind it is cell-based. The following applies: FIG. 19. The source says: Ivermectin and LPS are used to treat wild-type and FXR knockout mouse liver cells.

The structures appear in SMILES notation. Positions count from the first letter of the chain named.

T3 sequence (Q96RI1 1-472 isoform Q96RI1-2 F284H): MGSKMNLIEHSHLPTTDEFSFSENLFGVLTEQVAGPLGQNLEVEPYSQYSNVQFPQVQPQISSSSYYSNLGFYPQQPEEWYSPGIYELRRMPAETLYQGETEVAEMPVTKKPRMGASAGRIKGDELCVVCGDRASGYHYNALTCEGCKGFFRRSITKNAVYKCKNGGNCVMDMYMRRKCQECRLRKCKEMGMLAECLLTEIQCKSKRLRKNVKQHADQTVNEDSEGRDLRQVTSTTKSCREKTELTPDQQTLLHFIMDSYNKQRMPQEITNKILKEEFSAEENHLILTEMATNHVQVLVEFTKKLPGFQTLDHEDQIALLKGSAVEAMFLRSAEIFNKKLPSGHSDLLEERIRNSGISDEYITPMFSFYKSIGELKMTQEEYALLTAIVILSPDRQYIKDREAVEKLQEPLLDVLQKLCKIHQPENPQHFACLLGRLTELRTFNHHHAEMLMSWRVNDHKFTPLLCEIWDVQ

Take `CC[C@H](C)[C@H]1O[C@]2(CC[C@@H]1C)C[C@@H]1C[C@@H](C/C=C(\C)C(O[C@H]3C[C@H](OC)C(O[C@H]4C[C@H](OC)[C@@H](O)[C@H](C)O4)[C@H](C)O3)[C@@H](C)/C=C/C=C3\CO[C@@H]4[C@H](O)C(C)=CC(C(=O)O1)[C@]34O)O2` (stereo partly drawn) [ivermectin]: the “transcriptional activity of FXR” value at human FXR was “can only specifically activate the transcriptional activity of FXR”. Besides, in data set [1], the “transcriptional activity of the other detected nuclear receptors” value is reported as “does not produce any effect”. Besides, the “transcriptional activity of FXR mutant A291W” value at FXR A291W is recorded as “incapable of activating the transcriptional activity of FXR”. Also, on FXR F284H, the “transcriptional activity of FXR mutant F284H” value was “incapable of activating the transcriptional activity of FXR”. For the same compound, the “expression of genes associated with saccharides, lipids and cholesterol metabolism in liver” value in data set [2] was “can regulate the expression of genes associated with metabolism”. Further, in data set [3], the “expression of IL-6 induced by LPS” value is on record as “clearly inhibit”, the “expression of MIP-1a induced by LPS” value is recorded as “clearly inhibit”, the “expression of TNFa induced by LPS” value is reported as “clearly inhibit” and the “expression of iNOS induced by LPS” value was “clearly inhibit”.

Source of the values: patent publication US10052340B2 (XIAMEN UNIVERSITY, priority 2012, dated 2018).
